Assay results from ChEMBL document CHEMBL1201862, “PubChem BioAssay data set” (2004).
Calls of active or inactive are those of the source.

Key:
[1] = viability of uninfected HEp-2 cells – cell-based, HTS, cytotoxicity control for RSV inhibitor project, dose response (AID 2410); assay type: functional; conditions: human respiratory syncytial virus
[2] = molecular target: Cytochrome P450 2C9 (Homo sapiens, UniProt P11712)
[3] = molecular target: T1, Corticotropin-releasing factor receptor 2/Corticotropin-releasing factor-binding protein (Homo sapiens, UniProt P24387+Q13324); test: activators of CRF receptor 2 with binding protein – uHTS hits, confirmation (AID 602473); assay type: functional; conditions: read-out: EC50_Mean
T1 sequence (Q13324 whole entry): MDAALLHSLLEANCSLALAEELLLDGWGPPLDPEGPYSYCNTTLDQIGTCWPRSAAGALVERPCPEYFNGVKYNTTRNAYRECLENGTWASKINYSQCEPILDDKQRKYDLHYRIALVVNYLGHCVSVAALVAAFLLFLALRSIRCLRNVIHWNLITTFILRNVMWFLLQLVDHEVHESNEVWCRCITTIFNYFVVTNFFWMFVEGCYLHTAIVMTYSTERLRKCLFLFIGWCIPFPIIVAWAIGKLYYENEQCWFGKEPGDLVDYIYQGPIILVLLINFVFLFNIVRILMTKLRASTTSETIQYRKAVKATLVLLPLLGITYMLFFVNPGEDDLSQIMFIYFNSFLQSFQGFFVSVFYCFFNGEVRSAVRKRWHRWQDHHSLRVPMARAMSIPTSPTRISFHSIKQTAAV
T1 sequence (P24387 whole entry): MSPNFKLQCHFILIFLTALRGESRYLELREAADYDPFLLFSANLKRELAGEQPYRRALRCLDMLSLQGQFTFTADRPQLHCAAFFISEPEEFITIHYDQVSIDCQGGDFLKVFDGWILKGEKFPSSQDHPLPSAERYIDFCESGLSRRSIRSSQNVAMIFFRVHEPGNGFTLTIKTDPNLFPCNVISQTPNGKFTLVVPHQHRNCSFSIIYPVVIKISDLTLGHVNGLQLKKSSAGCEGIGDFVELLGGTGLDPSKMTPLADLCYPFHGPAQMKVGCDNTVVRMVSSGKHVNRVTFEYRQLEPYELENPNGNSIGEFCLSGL

[4] = molecular target: T2, Rac GTPase-activating protein 1 (Homo sapiens, UniProt Q9H0H5); test: blockers of MgcRacGAP-driven Rac1 GTP hydrolysis – biochemical, ADP Hunter fluorescence, primary and confirmatory, confirmation (AID 624330); assay type: functional
T2 sequence (Q9H0H5 whole entry): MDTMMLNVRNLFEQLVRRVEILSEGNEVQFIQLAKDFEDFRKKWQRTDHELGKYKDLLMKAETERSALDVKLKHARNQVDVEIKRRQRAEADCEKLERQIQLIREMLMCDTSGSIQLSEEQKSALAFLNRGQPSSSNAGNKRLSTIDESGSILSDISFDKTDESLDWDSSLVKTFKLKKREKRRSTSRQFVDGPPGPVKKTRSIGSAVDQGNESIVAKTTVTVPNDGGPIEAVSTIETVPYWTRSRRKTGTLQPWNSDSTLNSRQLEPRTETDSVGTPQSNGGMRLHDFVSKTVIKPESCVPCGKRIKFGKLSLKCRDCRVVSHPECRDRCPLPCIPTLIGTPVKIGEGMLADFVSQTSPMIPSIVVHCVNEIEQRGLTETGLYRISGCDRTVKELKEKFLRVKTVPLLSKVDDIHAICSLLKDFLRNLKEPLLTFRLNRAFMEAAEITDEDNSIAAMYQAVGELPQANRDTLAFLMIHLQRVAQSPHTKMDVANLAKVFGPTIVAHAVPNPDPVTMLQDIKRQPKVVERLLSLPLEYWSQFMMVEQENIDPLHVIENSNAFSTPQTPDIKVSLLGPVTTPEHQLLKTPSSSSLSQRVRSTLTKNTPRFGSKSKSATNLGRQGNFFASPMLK

[5] = molecular target: T3, Replicative DNA helicase DnaB (Mycobacterium tuberculosis, UniProt P9WMR3); test: DnaB intein splicing inhibitors, dose response, biochemical, cell-free fluorescence (AID 449749); assay type: functional
T3 sequence (P9WMR3 whole entry): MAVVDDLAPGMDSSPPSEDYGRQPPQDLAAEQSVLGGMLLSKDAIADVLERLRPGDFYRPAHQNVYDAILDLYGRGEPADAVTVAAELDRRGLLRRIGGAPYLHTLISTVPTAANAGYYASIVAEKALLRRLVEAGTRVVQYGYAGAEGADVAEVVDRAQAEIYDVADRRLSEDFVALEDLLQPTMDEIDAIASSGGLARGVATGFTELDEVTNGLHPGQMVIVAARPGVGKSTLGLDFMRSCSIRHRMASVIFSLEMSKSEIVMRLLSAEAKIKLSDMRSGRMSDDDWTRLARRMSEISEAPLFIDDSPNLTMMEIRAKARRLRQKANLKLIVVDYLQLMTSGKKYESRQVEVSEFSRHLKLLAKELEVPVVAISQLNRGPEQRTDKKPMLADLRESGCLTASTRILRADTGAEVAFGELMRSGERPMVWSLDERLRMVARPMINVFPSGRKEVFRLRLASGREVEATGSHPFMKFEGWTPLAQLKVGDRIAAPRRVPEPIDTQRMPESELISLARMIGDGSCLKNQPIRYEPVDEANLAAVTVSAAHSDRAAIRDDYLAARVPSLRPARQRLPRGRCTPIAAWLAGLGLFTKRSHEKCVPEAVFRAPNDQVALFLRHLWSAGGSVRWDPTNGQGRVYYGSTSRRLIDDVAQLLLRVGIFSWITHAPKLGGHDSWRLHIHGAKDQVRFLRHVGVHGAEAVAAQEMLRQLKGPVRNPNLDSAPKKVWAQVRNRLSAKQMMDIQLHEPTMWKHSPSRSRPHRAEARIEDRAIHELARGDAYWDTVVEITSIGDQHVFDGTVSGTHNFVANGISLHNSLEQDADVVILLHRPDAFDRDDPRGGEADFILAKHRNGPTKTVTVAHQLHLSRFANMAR

[6] = molecular target: T4, Protein RecA (Mycobacterium tuberculosis, UniProt P9WHJ3); test: Fluorescence Cell-Free Homogeneous Dose Retest to Identify Inhibitors of RecA-Intein Splicing Activity. [Related pubchem assays (depositor defined):AID2097, AID2223, AID489010, AID492950]; assay type: functional
T4 sequence (P9WHJ3 whole entry): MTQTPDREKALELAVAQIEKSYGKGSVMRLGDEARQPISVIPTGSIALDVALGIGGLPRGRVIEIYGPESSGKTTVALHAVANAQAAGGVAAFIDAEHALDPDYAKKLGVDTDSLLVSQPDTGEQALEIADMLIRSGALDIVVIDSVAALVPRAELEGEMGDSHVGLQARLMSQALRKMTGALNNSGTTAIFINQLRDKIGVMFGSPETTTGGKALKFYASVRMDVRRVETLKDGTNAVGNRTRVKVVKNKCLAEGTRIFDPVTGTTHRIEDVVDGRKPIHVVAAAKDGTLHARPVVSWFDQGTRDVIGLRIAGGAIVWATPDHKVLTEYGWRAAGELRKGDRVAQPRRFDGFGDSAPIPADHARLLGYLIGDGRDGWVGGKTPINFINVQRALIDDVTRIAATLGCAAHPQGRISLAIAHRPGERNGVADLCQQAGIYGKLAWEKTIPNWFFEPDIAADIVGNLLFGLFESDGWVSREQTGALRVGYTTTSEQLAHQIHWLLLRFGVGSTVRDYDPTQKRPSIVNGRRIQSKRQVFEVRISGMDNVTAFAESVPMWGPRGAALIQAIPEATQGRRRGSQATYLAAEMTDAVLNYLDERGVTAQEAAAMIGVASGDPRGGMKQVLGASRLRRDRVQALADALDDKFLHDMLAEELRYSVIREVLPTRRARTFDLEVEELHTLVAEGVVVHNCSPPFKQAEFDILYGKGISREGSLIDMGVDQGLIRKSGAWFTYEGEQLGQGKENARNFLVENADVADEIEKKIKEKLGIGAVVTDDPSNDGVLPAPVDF

[7] = molecular target: T5, RNA-binding protein pos-1 (Caenorhabditis elegans, UniProt G5EF15); test: disruptors of C. elegans POS-1 RNA interaction – biochemical, fluorescence polarization, dose response (AID 1964);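 note: purified POS-1 fused to maltose binding protein made in E. coli; potency of compounds blocking POS-1 binding to fluorescent RNA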
T5 sequence (G5EF15 whole entry): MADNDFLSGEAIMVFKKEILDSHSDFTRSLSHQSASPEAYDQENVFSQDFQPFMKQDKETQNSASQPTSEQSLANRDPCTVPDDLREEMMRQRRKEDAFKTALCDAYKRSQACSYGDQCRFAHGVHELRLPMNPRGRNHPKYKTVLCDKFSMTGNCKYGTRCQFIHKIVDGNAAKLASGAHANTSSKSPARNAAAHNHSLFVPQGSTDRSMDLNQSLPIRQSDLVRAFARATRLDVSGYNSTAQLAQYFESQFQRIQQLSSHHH

[8] = molecular target: Cytochrome P450 2C19 (Homo sapiens, UniProt P33261); test: Cytochrome panel assay with activity outcomes. Panel member name: p450-cyp2c19 Compounds with AC50 equal or less than 10 uM are considered active; assay type: functional; conditions: read-out: AC50
[9] = molecular target: T6, Cytochrome P450 1A2 (Homo sapiens, UniProt P05177);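 note: PubChem cytochrome P450 panel assay, CYP1A2 panel member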
T6 sequence (P05177 whole entry): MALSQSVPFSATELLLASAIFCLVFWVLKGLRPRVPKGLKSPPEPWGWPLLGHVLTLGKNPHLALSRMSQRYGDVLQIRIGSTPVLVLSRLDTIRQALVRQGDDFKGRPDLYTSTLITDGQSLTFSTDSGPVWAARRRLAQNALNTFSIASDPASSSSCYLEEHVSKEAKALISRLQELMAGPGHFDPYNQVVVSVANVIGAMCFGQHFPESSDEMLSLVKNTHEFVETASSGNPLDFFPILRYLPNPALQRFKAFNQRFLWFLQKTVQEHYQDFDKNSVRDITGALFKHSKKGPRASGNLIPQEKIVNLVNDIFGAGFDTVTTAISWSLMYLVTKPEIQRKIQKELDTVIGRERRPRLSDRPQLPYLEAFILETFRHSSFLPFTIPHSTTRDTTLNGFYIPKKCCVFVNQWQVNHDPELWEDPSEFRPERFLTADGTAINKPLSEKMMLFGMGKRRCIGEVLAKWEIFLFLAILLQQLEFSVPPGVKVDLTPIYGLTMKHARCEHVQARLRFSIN

Sequence of Cytochrome P450 2C9 (P11712 whole entry): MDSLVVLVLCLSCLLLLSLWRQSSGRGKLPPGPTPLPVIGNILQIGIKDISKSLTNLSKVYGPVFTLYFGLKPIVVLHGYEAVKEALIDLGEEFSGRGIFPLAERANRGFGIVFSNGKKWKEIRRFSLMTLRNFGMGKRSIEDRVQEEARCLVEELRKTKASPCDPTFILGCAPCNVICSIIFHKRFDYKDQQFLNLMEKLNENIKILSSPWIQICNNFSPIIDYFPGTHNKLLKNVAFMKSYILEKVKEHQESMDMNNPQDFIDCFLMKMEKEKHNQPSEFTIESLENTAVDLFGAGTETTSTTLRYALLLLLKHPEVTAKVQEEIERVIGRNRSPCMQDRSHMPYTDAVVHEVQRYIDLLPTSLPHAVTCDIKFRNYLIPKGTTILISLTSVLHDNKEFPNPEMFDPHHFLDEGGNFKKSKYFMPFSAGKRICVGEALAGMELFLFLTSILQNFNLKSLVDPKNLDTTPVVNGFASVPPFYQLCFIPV
Sequence of Cytochrome P450 2C19 (P33261 whole entry): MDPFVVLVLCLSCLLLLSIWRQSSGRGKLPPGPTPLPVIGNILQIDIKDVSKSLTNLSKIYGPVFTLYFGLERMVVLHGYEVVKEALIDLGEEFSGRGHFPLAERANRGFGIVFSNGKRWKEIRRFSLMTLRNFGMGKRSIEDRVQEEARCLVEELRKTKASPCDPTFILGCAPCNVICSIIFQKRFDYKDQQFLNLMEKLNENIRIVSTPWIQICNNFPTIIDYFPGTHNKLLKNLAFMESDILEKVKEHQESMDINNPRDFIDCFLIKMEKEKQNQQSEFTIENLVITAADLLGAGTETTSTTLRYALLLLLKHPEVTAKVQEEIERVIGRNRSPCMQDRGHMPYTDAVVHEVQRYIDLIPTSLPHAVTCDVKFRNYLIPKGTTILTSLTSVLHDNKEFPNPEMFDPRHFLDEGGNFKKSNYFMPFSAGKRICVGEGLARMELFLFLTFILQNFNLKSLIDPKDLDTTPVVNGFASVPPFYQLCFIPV

Compound	CC50 [1]	AC50 [2]	other results
COc1cc(OC)cc(C(=O)Nc2ccc(-c3nc4ccccc4o3)c(O)c2)c1	17.6 µM (active)	–	–
Cc1cc(C)c(NC(=O)C[S+]([O-])CC(=O)NCCCc2ccccc2)c(C)c1 (stereo not given)	–	28.2 µM (inconclusive)	–
COC(=O)C1=C(c2ccc(C(C)=O)cc2)C[C@@H]2CC[C@H]1N2C(=O)NCc1ccc(C(F)(F)F)cc1	–	–	EC50 [3]: 4.94 µM (active)
Nc1ccc2[nH]c(CCCCc3nc4ccccc4[nH]3)nc2c1	–	–	IC50 [4]: 57.3 µM (active); AC50 [5]: > 380 µM (inactive); EC50 [6]: 16.9 µM (active)
O=C(Nc1cccc(S(=O)(=O)N2CCCCC2)c1)c1ccccc1NS(=O)(=O)c1ccc(F)cc1	–	–	EC50 [3]: > 53 µM (inactive)
CCOc1cc(C=C2C(=O)c3ccccc3C2=O)ccc1OCC(=O)Nc1ccc(C)cc1	–	–	EC50 [3]: > 53 µM (inactive)
O=C(O)[C@@H](S)[C@H](S)C(=O)O	–	3.98 µM (inconclusive)	–
CCN(CC)c1ccc(/C=N/c2sc3c(c2C#N)C2CCN3CC2)c(O)c1	6.56 µM (active)	–	–
COc1ccccc1CNC(=O)CCCn1nc(C)c2c(C)n(-c3ccc(C)cc3)nc2c1=O	32 µM (active)	–	–
C=CCn1c(=O)c2ccccc2n2c(SCC(=O)N3CCCc4ccccc43)nnc12	–	–	EC50 [3]: > 53 µM (inactive)
CC(=O)N1CCc2ccc(S(=O)(=O)N3CCN(C)CC3)cc21	–	–	EC50 [3]: > 53 µM (inactive)
CCc1sc(C(=O)Nc2ccc3c(c2)OCCO3)cc1Br	10.7 µM (active)	–	–
Cc1nc2sccn2c(=O)c1S(=O)(=O)Nc1cccc(Cl)c1C	–	–	EC50 [3]: > 53 µM (inactive)
Cc1cccc(N2C(=O)/C(=C/c3ccc(N4CCN(C)CC4)o3)C(=O)NC2=S)c1C	–	–	EC50 [7]: > 300 µM (inconclusive)
COc1cc(CC(=O)OC2CCOC2=O)cc(OC)c1OC (stereo not given)	–	39.8 µM (inconclusive)	AC50 [8]: 8.91 µM (inconclusive)
Cc1oc(-c2ccccc2)cc1C(=O)Nc1ccc(N(C)C)cc1	–	25.1 µM (inconclusive)	IC50 [4]: 62.3 µM (active)
CCc1cc2c(O)ncnc2s1	–	28.2 µM (inconclusive)	AC50 [9]: 20 µM (inconclusive)
O=S(=O)(c1ccc2c(c1)OCCO2)N1CCN(c2cccc(Cl)c2)CC1	34.9 µM (active)	–	–
Nc1ccc(S(=O)(=O)Nc2cnc3ccccc3n2)cc1 [SULFAQUINOXALINE SODIUM]	–	10 µM (inconclusive)	–
CCOP(=O)(OCC)c1nc(/C=C/c2ccccc2)oc1NCc1ccccc1	–	4.47 µM (inconclusive)	AC50 [9]: 15.8 µM (inconclusive)
CCCCc1ccc(-c2csc(/C(C#N)=C/c3ccc(C)o3)n2)cc1	–	3.16 µM (inconclusive)	AC50 [9]: 2 µM (inconclusive)
O=C(CCCN1C(=O)c2cccc3cccc(c23)C1=O)N1CCN(Cc2ccc3c(c2)OCO3)CC1	43.7 µM (active)	–	–
COc1ccc(/C(O)=C/c2nc3ccccc3n(-c3ccccc3)c2=O)cc1	–	–	EC50 [3]: 7.85 µM (active)
CCOc1cc(N(CC)CC)ccc1/C=C(/C#N)c1nc2ccccc2[nH]1	21.4 µM (active)	–	–
CCOc1ccc2nc(NC(=O)COc3ccc(N(C)S(=O)(=O)c4ccc(C)cc4)cc3)sc2c1	1.78 µM (active)	–	–
Oc1ccc(C[C@H]2CNCCN2CCC23CC4CC(CC(C4)C2)C3)cc1	14.2 µM (active)	–	–
COc1ncc2nc(-c3cccs3)c(=O)n(C)c2n1	–	12.6 µM (inconclusive)	–
CCn1nc(C(=O)Nc2ccccc2N2CCCC2)c2ccccc2c1=O	> 50 µM (active)	–	–
